In US20040019429A1, “Methods and systems for analyzing complex biological systems” (priority 2001, published 2004):
“Also recorded” adds a separate entry of the source.

What was measured:
yeast cells = test: AF1 combined gene expression and metabolite data mapped to KEGG reactions and pathways; parameters: species or system Saccharomyces cerevisiae
Text: The pathway score indicates how meaningful the mapping is, or how likely it is to be correctly indicative of the pathway involved in the perturbation under examination. The method provides a pathway score based on perturbation levels of genes and/or compounds and the information content of each gene and/or compound in the pathway, i.e., a pathway score indicates the extent to which other pathways are mapped to a gene/compound. For example, imagine that two genes are perturbed in a particular experiment. One gene maps to only one pathway, giving a high degree of probability that the perturbed pathway is the one identified in the mapping. The second gene maps to three pathways. In the later example, there is only one-third the probability that the pathway identified in the mapping is the one perturbed. […] Degree of perturbation can be calculated, for example, based on a number of standard deviations from a norm, and included in an equation such as the one shown above, so that not only the number of pathways is taken into account, but also accounts for the amount of gene transcript, or compound present as compared to a control. […] KEGG links 676 compounds measured in AF1 to a total of 92 pathways. Of the 676 compounds under consideration, 77 were detected in the AF1 samples. […]

[1] = system: Saccharomyces cerevisiae wild type strain BY4743; test: AF1 yeast metabolite analysis by GC-MS and LC-MS after antifungal drug treatment; format: cell-based; details: for # Compounds perturbed by treatment: 2X MIC, two hours
Arabidopsis thaliana [2] = test: MOA1 biochemical (metabolite) profiling by LC-MS and GC-MS; details: 20 minutes and 1 hour after spraying
Arabidopsis thaliana [3] = test: MOA1 phenotypic profiling of sprayed plants (eleven phenotypic characteristics); format: in vivo; details: hierarchical cluster analysis of eleven phenotypic characteristics
[4] = system: Arabidopsis thaliana plants; test: SOA1 phenotypic analysis of herbicide-treated plants (MIC, Tmic, leaf traits, symptom class); format: in vivo; details: for Characteristic symptoms of treated plants (in words): SOA1 phenotypic analysis
Arabidopsis thaliana [5] = test: MOA1 gene expression profiling (arrays of 22,000 Arabidopsis genes); details: for No. of Lethal Genes Altered: altered genes identified as essential for plant growth in internal database
Magnaporthe grisea = format: cell-based
[6] = numeric value standardized to mock treated plants, SOA1

Structure (SMILES): C[C@@H]1[C@H](O)[C@@H](C)/C=C/C=C/C=C/C=C/C=C/C=C/C=C/[C@H](O[C@@H]2O[C@H](C)[C@@H](O)[C@H](N)[C@@H]2O)C[C@@H]2O[C@](O)(C[C@@H](O)C[C@@H](O)[C@H](O)CC[C@@H](O)C[C@@H](O)CC(=O)O[C@H]1C)C[C@H](O)[C@H]2C(=O)O [Amphoteracin B]
- Number Of Pathways Having at Least One Enzyme and One Compound Perturbed (# Reactions) (yeast cells): 37
- Number of Reactions Having an Enzyme and at Least One Compound Perturbed (yeast cells): 54
- # Compounds perturbed by treatment ([1]; P < 0.05): 16
- # Compounds perturbed by treatment ([1]; P < 0.1): 21
- Fold Change, abscisic acid ([1]; platform LC): 0
- Fold Change, adenosine ([1]; platform LC): 0
- Fold Change, riboflavin ([1]; platform LC): 0
- Fold Change, selenoOLmethionine ([1]; platform nLC): 0.8515

Structure (SMILES): CC(C)OC(=O)Nc1cccc(Cl)c1 [Chloropropham]
- Regulated metabolites relative to control (in words) (Arabidopsis thaliana [2]): neither butylate nor chlorpropham treatment resulted in many changes in these commonly regulated metabolites
- Phenotype and phenotypic clustering (in words) (Arabidopsis thaliana [3]): neither showed a strong herbicidal phenotype

Structure (SMILES): Nc1nc[nH]n1 [Amitrole]
- Characteristic symptoms of treated plants (in words) [4]: leaf bleaching and leaf enlargement
- Phenotype and phenotypic clustering (in words) (Arabidopsis thaliana [3]): exhibited chlorosis and not true bleaching

Structure (SMILES): CCSC(=O)N(CC(C)C)CC(C)C [Butylate]
- Regulated metabolites relative to control (in words) (Arabidopsis thaliana [2]): neither butylate nor chlorpropham treatment resulted in many changes in these commonly regulated metabolites
- Phenotype and phenotypic clustering (in words) (Arabidopsis thaliana [3]): neither showed a strong herbicidal phenotype

Structure (SMILES): CP(=O)(O)CCC(N)C(=O)O (stereo not shown) [Glufosinate]
- Regulated Genes Following Herbicide Treatment: Down (Arabidopsis thaliana [5]; 1 hr, p < 0.5, number of genes of 22,000): 54
- No. of Lethal Genes Altered (Arabidopsis thaliana [5]; 1 hr): 10
- Regulated metabolites relative to control (in words) (Arabidopsis thaliana [2]): Only a few, if any, stress-related metabolites were observed
- Growth of M. grisea on various nitrogen sources, Tier 4 (Magnaporthe grisea): only able to utilize glutamine and glutamate as nitrogen sources
- Characteristic symptoms of treated plants (in words) [4]: Chlorosis and leaf curling
- leafCurling (Dev.) [4, 6]: 2
- leafTwisting (Dev.) [4, 6]: 1
- leafWidth (Dev.) [4, 6]: −2
- matureLeafAnthocyanins (Dev.) [4, 6]: 0
- matureLeafChlorosis (Dev.) [4, 6]: 3
- matureLeafNecrosis (Dev.) [4, 6]: 0
- newLeafAnthocyanins (Dev.) [4, 6]: 0
- newLeafChlorosis (Dev.) [4, 6]: 3
- newLeafNecrosis (Dev.) [4, 6]: 0
- pointedLeaves (Dev.) [4, 6]: 1
- tMic (Dev.) ([4]; score for time to full range of symptoms at the MIC, SOA1): 1

Structure (SMILES): CS(=O)(=O)c1cc(C(F)(F)F)ccc1C(=O)c1cnoc1C1CC1 [Isoxaflutole]
- Gene expression perturbation (in words) (Arabidopsis thaliana [5]; MOA1, one-hour time point): alterations in the expression of genes involved in the homogentisate biosynthetic pathway were not observed
- No. of Lethal Genes Altered (Arabidopsis thaliana [5]; 1 hr): 15
- Regulated metabolites relative to control (in words) (Arabidopsis thaliana [2]): both tyrosine and phenylalanine were up-regulated relative to the control; also recorded: Alpha-tocopherol was detected, but the levels were not significantly changed relative to the control at the early time points; also recorded: (tyrosine and phenylalanine), began to accumulate relative to the control after one hour
- Growth of M. grisea at a sub-inhibitory concentration (minimal, supplemented, minimal plus tyrosine media) (Magnaporthe grisea; concentration insufficient to inhibit growth): growth was inhibited in minimal plus tyrosine media, while growth in minimal media was unaffected
